Assay results published in PubChem BioAssay AID2305 (GlaxoSmithKline (GSK), 2010).
“And” between values parts separate entries of the source, which are not always exact repeats. Identical values can stand only once.

system: P. falciparum 3D7 growth, pLDH absorbance; experiment: blood-stage malaria parasite growth potency – strain 3D7, dose response (AID 2305)

Compound	IC50
Oc1ccc(CN2CCN(CCOC(c3ccccc3)c3ccccc3)CC2)cc1Cl	810 nM
CCN(CC)C(=NCCCCCCCCN=C(/N=C(/N)Nc1ccc(Cl)cc1)N(CC)CC)/N=C(/N)Nc1ccc(Cl)cc1	400 nM
O=C(NC1CCN(c2ccnc3cc(Cl)ccc23)C1)c1cccc(F)c1 (stereo unspecified)	180 nM
O=C(/C=C/c1ccc(Cl)c(Cl)c1)NCCCCCN1CCCN(C(=S)Nc2ccc(Cl)cc2)CC1	1130 nM
COc1ccc(C(=O)CCC(=O)N(Cc2ccc(-c3ccc(CNCCc4ccccc4)cn3)cc2)C(C)CN(C)C)cc1F (stereo unspecified)	750 nM
CC(=O)N(C)/N=C/[C@H](CCc1ccccc1)NC(=O)[C@H](CC(C)C)NC(=O)c1cccc(OCCN2CCOCC2)c1	330 nM
COc1ccc2nccc([C@@H](O)CN3CCC(NC(=O)C(c4ccccc4C)N4CCC(Cc5ccccc5)CC4)CC3)c2c1 (stereo partly specified)	260 nM
NC(N)=Nc1nc(-c2cccc(NC(=O)CCCCCCCON3C(N)=NC(N)=NC34CCCCC4)c2)cs1	40 nM
COc1ccc(Cc2cccc(C(C(=O)NCc3cc(Cl)cc(Cl)c3)N3CCN(C)CC3)c2)cc1 (stereo unspecified)	690 nM
COc1ccc(CCN(C)CCCN2CCC(NC(=O)c3cccc4c(=O)c5ccccc5[nH]c34)CC2)cc1OC	690 nM
Cc1cccc(C)c1CNc1cccc(-c2nc(C)c(C)[nH]2)c1	880 nM
CCCC(CNC(=O)c1cc2c(Cl)cc(Cl)cc2[nH]1)CNc1cc(=O)c2ccccc2[nH]1 (stereo unspecified)	900 nM
CC(C)CCNC(=O)C1Cc2c([nH]c3cc(Br)ccc23)C2(CCN(CCc3ccccc3)CC2)N1 (stereo unspecified)	910 nM
C[C@@H](C(=O)N1CCOCC1)N1CC[C@H](NS(=O)(=O)c2ccc3ccnc(N)c3c2)C1=O	1500 nM
NC12CC3CC(CC(C3)C1)C2	160 nM
Cc1ccc(Cn2cnc3cc(C(=O)Nc4ccc(-c5cccc(CN(C)C)c5)cc4)ccc3c2=O)o1	630 nM
Cc1nc2nc(N)nc(N)c2c(C)c1Cc1ccccc1Cl	110 nM
COc1ccc(Cn2c(Nc3cccc(C(F)(F)F)c3)nc3cc(C(=O)NC4CC4)cnc32)cc1Cl	730 nM
Cc1cc(O)c2c(c1)OC(C)(C)C=C2C1=CCN(Cc2ccccc2)CC1	790 nM
COc1ccc(-c2ccc(NC(=O)c3ccccc3)cc2)cc1CN1CCCN(C)CC1	910 nM
O=C(Cn1cc(C(F)(F)F)cc(Cl)c1=O)N1CCN(S(=O)(=O)c2ccc(Cl)cc2)CC1	900 nM
FC(F)(F)c1ccc2nc(-c3ccc(-c4ccc(CN5CCN(c6cnccn6)CC5)cc4)s3)[nH]c2c1	650 nM
Fc1ccc(C=NNc2ccnc3ccc(C(F)(F)F)cc23)cc1	1100 nM
Clc1ccc(OCCC2CCN(CCCCCCN3CCCCC3)CC2)cc1Cl	1140 nM

Compound	IC50
Cc1cccc2[nH]c(-c3cccc(-c4cccc(NC(=O)c5cnccc5C(F)(F)F)c4)c3)nc12	660 nM
O=C(NCc1ccc(S(=O)(=O)N2CCC(CN3CCC(c4c[nH]c5ccccc45)CC3)CC2)s1)c1ccccc1	840 nM
CN(C)c1ccc(-c2ccc(C(=O)NC3CCN(Cc4ccc(F)cc4)CC3)s2)cc1	1050 nM
CCn1c(C=Cc2cc(Br)ccc2O)nc2ccccc2c1=O	650 nM
COc1ccc(CCN(C)CCCOc2ccc(NC(=O)c3cccc4c(=O)c5ccccc5[nH]c34)cc2)cc1OC	910 nM
CCCNCc1ccc(-c2ccc(CN(Cc3cnc(C)cn3)C(=O)CC#N)cc2)nc1	1220 nM
CCc1c(C)nc(-n2nc(C)cc2NC(=O)CC(c2ccccc2)c2ccccc2)[nH]c1=O	650 nM
CCOc1cc(CNCCCCCCNCc2cc(OCC)c(OCC)c3ccccc23)c2ccccc2c1OCC	280 nM
O=[N+]([O-])c1cc(C=NNc2nc3nonc3nc2Nc2ccc(F)cc2)c(Cl)cc1Cl	760 nM
CCOc1ccc2nc(C)cc(NN=Cc3cccc(C)n3)c2c1	750 nM
Clc1cccc(Nc2ccc3c(N4CCCCC4)ncnc3n2)c1	580 nM
CCOC(=O)CCCc1cc(NC2CCN(C)CC2)nc(Nc2ccc(OC)cc2)n1	700 nM
CCCCCCCC/C=C\CCCCCCCC(=O)NCc1ccc(O)c(OC)c1	400 nM
CCc1nc(N)nc(N)c1-c1cccc(Cl)c1	190 nM
O=C(Nc1ccc(-c2oc(C(=O)NCCc3cccc(Cl)c3)cc2-c2ccncc2)cc1)Nc1cccc(Cl)c1	720 nM
CC(C)(C)c1ccc(NC(=O)c2ccc(CN3CCCN(Cc4cccc(O)c4)CC3)cc2)cc1	670 nM
C(=Cc1nc2ccccc2s1)c1ccc2c(c1)OCCO2	390 nM
COC(=O)c1cccc(NC(=O)NC2CCN(c3ccnc(Nc4cc(OC)c(OC)c(OC)c4)n3)C2)c1 (stereo unspecified)	510 nM
COCCNCc1cccc(-c2cc3nccc(Nc4ccc(Oc5ccccc5)cc4)c3cc2Cl)c1	1380 nM
CCCc1ccc(S(=O)(=O)NC2CCN(c3ccnc(Nc4ccc(F)cc4)n3)C2)cc1 (stereo unspecified)	1010 nM
CC(C)CC(=O)Nc1cc(=O)[nH]c2nc(-c3ccccc3)nn12	350 nM
COc1c(C(=O)NC2CCN(Cc3ccccc3)C2)cnc2ccccc12 (stereo unspecified)	960 nM
NCc1cccc(-c2ccc(CNC3CCN(Cc4ccccc4)CC3)cc2)c1	1700 nM
O=C(NC1CCCCN(Cc2ccccc2O)C1)c1ccc(-c2ccccc2)cc1 (stereo unspecified)	760 nM

Compound	IC50
NC(=O)c1cccc(CNCc2ccc(-c3cccc(-c4nc5ccccc5[nH]4)c3)cc2)c1	590 nM
COc1ccc(CCNc2ccnc3cc(Cl)ccc23)cc1OC	890 nM
C[C@@H](Oc1cc(-n2cnc3ccc(OCC4CCN(S(C)(=O)=O)CC4)cc32)sc1C(N)=O)c1ccccc1C(F)(F)F	1020 nM
COCCN1CCN(Cc2ccc(-c3ccc(-c4nc5ccc(F)cc5[nH]4)cc3)cc2)CC1	720 nM
COc1cccc(CN2CCCC(COC(c3ccc(F)cc3)c3ccc(F)cc3)C2)c1O (stereo unspecified)	330 nM
Cc1cc(N(C)C)nc(Nc2ccc(NC(=O)C3CCCCC3)cc2)n1	1110 nM
CCCCC1(NC(=O)[C@@H](Nc2ccc(C#N)c3ccccc23)C2CCCCC2)CCCCC1	1120 nM
O=C(Nc1cccc(CN2CCCN(Cc3ccc(O)cc3)CC2)c1)c1cccc(C(F)(F)F)c1	310 nM
Cc1c(Cl)cccc1S(=O)(=O)Nc1ccc(CCN2CCC(N)CC2)cc1	1460 nM
Cc1cccc2c(/C=C/C(=O)NC3CCC(CCN4CCc5ccc(C#N)cc5CC4)CC3)c[nH]c12 (stereo unspecified)	1220 nM
COc1cc(Nc2ccc3cc(S(=O)(=O)N4CCCCC4C)ccc3n2)cc(OC)c1OC (stereo unspecified)	1240 nM
CN1CCC(N2CCN(c3ccc4c(=O)nc(CCc5cccc(F)c5F)n(CC(=O)N(C)Cc5ccc(-c6ccc(C(F)(F)F)cc6)cc5)c4n3)CC2)CC1	720 nM
CCCN1CCN(CCCNC(=O)c2cc3c(-c4ccc(Cl)cc4)nn(C)c3s2)CC1	1100 nM
CCOCCCNc1sc(S(=O)(=O)c2ccccc2)nc1S(=O)(=O)c1ccc(C)cc1	810 nM
CCSc1ccccc1COc1c(C)nc(N)nc1N	70 nM
COc1ccc(Nc2nc(NN=Cc3ccc(O)cc3)nc(Nc3ccc([N+](=O)[O-])cc3)n2)cc1	1120 nM
NC(=O)c1ccccc1OCC(=O)Nc1ccc(-c2cccc(-c3nc4ccc(C(F)(F)F)cc4[nH]3)c2)cc1	980 nM
COc1cc2c(cc1C(F)(F)F)N(C(=O)Nc1cc(Br)cc(-c3cccnc3)c1)CC2	860 nM
COc1cccc(C(O)CNc2ccnc(Nc3ccc(Cl)cc3)n2)c1 (stereo unspecified)	610 nM
COC(=O)c1cccc(CNCc2cccc(-c3ccc(-c4nc5ccc(C(F)(F)F)cc5[nH]4)cc3)c2)c1	260 nM
CC(C)CCn1c(Sc2ccc(C#N)c([N+](=O)[O-])c2)nnc1-c1ccc(N(C)C)cc1	790 nM
c1cn(-c2ccc(CNc3nccc(Nc4ccc(OCCN5CCOCC5)cc4)n3)cc2)cn1	880 nM
CCC[C@@H]([C@@H](CC1CCCCC1)C(=O)N[C@H](C(=O)Nc1ccccn1)[C@H](C)CC)N(O)C=O	530 nM
CNCCNCc1ccc(-c2ccc(-c3nc4ccc(C(F)(F)F)cc4[nH]3)s2)cc1	600 nM

Compound	IC50
CN1CCN(c2cc(-c3cccc(C(F)(F)F)c3)nc(-c3ccncc3)n2)CC1	730 nM
O=C(NCCc1cccc(Cl)c1Cl)c1ccc(N2CCN(c3ccncc3)CC2)nc1	1060 nM
O=C(Nc1cc(F)cc(F)c1)N1CCOC(CCN2CCC3(CCc4ccccc43)CC2)(c2ccc(Cl)c(Cl)c2)C1 (stereo unspecified)	280 nM
Cc1cc(CN2CC[C@H](NC(=O)c3ccc(Cl)c(Cl)c3)C2)ccc1OCCN1CCCC1	1160 nM
COc1ccccc1C1CCN(C2CCC(NC(=O)c3ccc4nc(-c5ccc(C)cc5)[nH]c4c3)CC2)CC1 (stereo unspecified)	310 nM
Nc1ncc(-c2ccc(NC(=O)Nc3cc(C(F)(F)F)ccc3F)cc2)c(N)n1	720 nM
CCN1C(=O)C(CC(=O)Nc2cccc(Cl)c2)N(Cc2ccc(OC)c(OC)c2)C1=S (stereo unspecified)	610 nM
Cc1nc(-c2nc(NCCc3cnccn3)ncc2-c2ccsc2)sc1C	880 nM
Oc1ccc(CC2CCCN(c3nc(NCCCOc4ccccc4-c4ccccc4)nc(N4CCNCC4)n3)C2)cc1 (stereo unspecified)	920 nM
Cc1[nH]c(C)c(-c2cccc(Oc3ccc(Cl)cc3)c2)c(=O)c1Br	70 nM
Cc1cc(N[C@@H](Cc2ccccc2)C(=O)Nc2ccccc2)nc(NCCc2ccccc2)n1	870 nM
O=C(/C=C/c1ccc(Cl)c(Cl)c1)NCCCCCN1CCC(c2cn[nH]c2-c2ccccc2)CC1	1220 nM
CCNc1cc(C(=O)N[C@@H](Cc2ccccc2)[C@H](O)CNC(C)(C)CCCC(C)C)c(F)c(N2CCCS2(=O)=O)c1	200 nM
COc1cccc(C(=O)NCCc2cccc(Cl)c2)c1Oc1ccccc1	840 nM
O=C(Nc1ccc2c(c1)CCC2)c1ccc(N2CCN(c3ccncc3)CC2)cc1	1130 nM
O=C(C=Cc1ccccc1C(F)(F)F)NC1CCC(CN2CCC(c3c[nH]c4ccccc34)CC2)CC1 (stereo unspecified)	900 nM and 680 nM
Cc1ccc2c(NN=Cc3cccc(F)c3)cc(C)nc2c1	860 nM
Nc1ncc(-c2ccc3nccc(-c4ccncc4)c3c2)cc1S(=O)(=O)N1CCCCC1	580 nM
COc1cc(NC(=O)Nc2cccc3ccccc23)c(OC)cc1Cl	480 nM
O=C(Nc1cccc(C(F)(F)F)c1)NC1CCN(c2ccnc3ccccc23)C1 (stereo unspecified)	290 nM
CC1(CCc2ccccc2)N=C(Nc2ccc(Cl)cc2)N=C(N)C1c1ccc(Cl)c(Cl)c1 (stereo unspecified)	220 nM
CC(C)Cn1c(Sc2ccc(C#N)c([N+](=O)[O-])c2)nnc1-c1cccc(Cl)c1	300 nM
CCCCCCNC(=O)c1nn(CCN2CCC(N3CCCC3)CC2)cc1-c1ccc(Cl)c(Cl)c1	730 nM
CCOC(=O)c1ccc(NC(=O)Nc2cccc(-c3ccc(-c4nc5ccccc5[nH]4)cc3)c2)cc1	210 nM
